We go through 15 compounds from PubChem BioAssay (NCI).

SMILES strings stand for the structures.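 The compound was tested at five concentrations on cells cultured in 96-well plates, with a 48-hour exposure period. GI50: concentration for 50% inhibition of growth. TGI marks complete inhibition of growth.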

Some test systems named below: RXF-631 renal; SNB-78 CNS; XF 498 CNS; M19-MEL melanoma; KM20L2 colon; HOP-18 NSCLC; MDA-MB-231 breast; BT-549 breast; 786-0 renal.
Holding throughout (experiment): inhibition of tumour cell growth, NCI panel, 48 h

Consider `C=C(C(=O)C(=O)Oc1ccc(Cl)cc1)C(=O)c1ccc(C)cc1`, for which the TGI in the assay on RXF-631 renal is over 100 µM; with SNB-78 CNS, over 100 µM; with XF 498 CNS, over 100 µM; with M19-MEL melanoma, 35.4 µM; in the assay with KM20L2 colon, over 100 µM; in the assay on HOP-18 NSCLC it was over 100 µM.

Turning to `C/C(CCOC1CCCCO1)=C(\C)[Si](C)(C)C` (stereo not drawn), the TGI in the assay with SNB-78 CNS, in the assay on XF 498 CNS, in the assay with M19-MEL melanoma and in the assay on KM20L2 colon was over 100 µM each time.

In the assay on MDA-MB-231 breast, `CCOC(=O)c1csc(NC(=O)CCN(CC)CC)n1` registered a TGI of over 100 µM.

As to `O=C1C(Cl)=C(N2CCN(C3=C(Cl)C(=O)c4ccccc4C3=O)CC2)C(=O)c2ccccc21`, the TGI in the assay on MDA-MB-231 breast was determined as 3.34 µM; in the assay with RXF-631 renal it was 3.46 µM; in the assay on SNB-78 CNS it was 1.56 µM; in the assay on BT-549 breast, 3.12 µM; in the assay on XF 498 CNS it was 2.66 µM; in the assay with M19-MEL melanoma, 2.91 µM. The TGI worked out at 14 µM with KM20L2 colon and 3.26 µM with 786-0 renal.

With `Oc1ccc(/C=C/c2cc(O)cc(O)c2)cc1`, the TGI in the assay on MDA-MB-231 breast and with BT-549 breast was over 100 µM each time.

With `COC(=O)C1C(C(=O)OC)N(Cc2ccccc2)C(=O)N1Cc1ccccc1` (stereo not drawn), the TGI in the assay with BT-549 breast was over 100 µM.

Consider `C[C@]12CC[C@@H]3c4ccc(O)cc4CC[C@H]3[C@@H]1C/C(=C\c1ccncc1)C2=O`, for which, in the assay with MDA-MB-231 breast, the TGI was over 100 µM.

For the compound `CCCc1cc(=O)c2c(C)c3[nH]c4ccc(Cl)cc4c3c(C)c2[nH]1`, the results for the TGI with MDA-MB-231 breast and in the assay on 786-0 renal were 3.97 µM and 3.08 µM, respectively.

`N.N.N.O=[N+]([O-])[O-].O=[N+]([O-])[O-].O=[N+]([O-])[O-].O=[N+]([O-])[O-].[Co+3]`: the GI50 in the assay with SNB-78 CNS and in the assay with KM20L2 colon was over 100 µM each time. For the same compound, the TGI in the assay with SNB-78 CNS, with KM20L2 colon and with 786-0 renal was over 100 µM in each case.

Regarding `COc1ccc2[nH]c(O)c(/C=c3/cc4c(c(-c5cc(OC)c(OC)c(OC)c5)n3)=Nc3ccccc3-4)c2c1`, the GI50 in the assay with MDA-MB-231 breast was 0.982 µM; in the assay with BT-549 breast it was 5.13 µM. Moreover, the TGI in the assay on MDA-MB-231 breast turned out to be 36.6 µM; in the assay on BT-549 breast it was 83.5 µM.

Regarding `C#CCCCCC#Cc1ccccc1C(=O)OC`, the TGI with XF 498 CNS, in the assay on KM20L2 colon and with HOP-18 NSCLC was over 100 µM throughout.

With `NC(N)=NS(=O)(=O)c1ccc(NCc2c3ccccc3[n+]([O-])c3ccccc23)cc1`, the TGI with SNB-78 CNS is over 100 µM; with M19-MEL melanoma, over 100 µM; with KM20L2 colon, over 100 µM; in the assay on HOP-18 NSCLC, 52.3 µM; in the assay with 786-0 renal, over 100 µM.

In the assay with MDA-MB-231 breast, `CC(C)OP(=O)(OC(C)C)c1c(Nc2ccccc2)n[nH]c1N` registered a TGI of over 100 µM.

As for `O=C(O)CC/C(=N\Nc1nsc2ccccc12)c1ccccc1`, the TGI in the assay on SNB-78 CNS, in the assay with M19-MEL melanoma, in the assay on KM20L2 colon and with HOP-18 NSCLC was over 100 µM in each case.

`CCN1c2ccccc2-n2c(C)nnc2-c2c1n[nH]c2-c1ccccc1` yielded a TGI in the assay on MDA-MB-231 breast of 71.1 µM.
